# Measurements from US20240391862A1, “(1,4,5-TRISUBSTITUTED-1H-PYRAZOL-3-YL)OXY-2-ALKOXY ALKYL ACIDS AND THEIR DERIVATIVES, THEIR SALTS AND THEIR USE AS HERBICIDAL AGENTS” (Bayer AKtiengesellschaft, priority 2021, published 2024).
# Tested on: various unwanted plants
# Assay: Post-emergence effect against various unwanted plants (PO): comparative test of I-01 with compounds from WO2020/245044 (Tables 41a, 41b) and summary statements
# Type: in vivo
# Details: for Post-emergence effect, Effect %, ALOMY / Post-emergence effect, Effect %, AVEFA / Post-emergence effect, Effect %, ECHCG / Post-emergence effect, Effect %, LOLRI / Post-emergence effect, Effect %, SETVI: comparative test
# Protocol: Seeds of monocotyledonous and dicotyledonous weeds and crop plants are placed in sandy loam in plastic or organic planting pots, covered with soil and cultivated in a greenhouse under controlled growth conditions. 2 to 3 weeks after sowing, the trial plants are treated at the one-leaf stage. The compounds of the invention, formulated in the form of wettable powders (WP) or as emulsion concentrates (EC), are then sprayed onto the green parts of the plants as aqueous suspension or emulsion with addition of 0.5% additive at a water application rate of 600 l/ha (converted). After the test plants have been kept in the greenhouse under optimum growth conditions for about 3 weeks, the activity of the preparations is rated visually in comparison to untreated controls. For example, 100% activity=the plants have died, 0% activity=like control plants. […] Tables 41a and 41b below show the effects of the inventive compound (I-01) with structurally similar compounds (WO2020/245044) on various harmful plants at an application rate corresponding to 320 g/ha or less, which have been obtained by the trial procedure specified hereinafter. The inventive compound (I-01) differs here by variance of a significant structural feature from the structurally similar compound with regard to the R^2 radical. Seeds of monocotyledonous and dicotyledonous weeds and crop plants are placed in sandy loam in plastic or organic planting pots, covered with soil and cultivated in a greenhouse under controlled growth conditions. 2 to 3 weeks after sowing, the trial plants are treated at the one-leaf stage. The compounds of the invention, formulated in the form of wettable powders (WP) or as emulsion concentrates (EC), are then sprayed onto the green parts of the plants as aqueous suspension or emulsion with addition of 0.5% additive at a water application rate of 600 l/ha (converted). After the test plants have been kept in the greenhouse under optimum growth conditions for about 3 weeks, the activity of the preparations is rated visually in comparison to untreated controls. For example, 100% activity=the plants have died, 0% activity=like control plants. Effects/crop compatibilities of selected compounds (see Table 39) on various harmful plants at an application rate corresponding to 80 to 320 g/ha that have been obtained by the trial procedure specified hereinafter are shown in Tables 41a and 41b below.
compound,measurement,setting,value
"CCOC(=O)C(OCC)Oc1nn(-c2ccccc2F)c(-c2ccc(F)nc2)c1Br (racemic) [Example I-01, Ethyl (2RS)-{[4-bromo-1-(2-fluorophenyl)-5-(6-fluoropyridin-3-yl)-1H-pyrazol-3-yl]oxy}(ethoxy)acetate]","Post-emergence effect, Effect %, ALOMY",80 g/ha,90%
same,"Post-emergence effect, Effect %, ALOMY",320 g/ha,100%
same,"Post-emergence effect, Effect %, AVEFA",80 g/ha,90%
same,"Post-emergence effect, Effect %, AVEFA",320 g/ha,90%
same,"Post-emergence effect, Effect %, ECHCG",80 g/ha,90%
same,"Post-emergence effect, Effect %, ECHCG",320 g/ha,90%
same,"Post-emergence effect, Effect %, LOLRI",80 g/ha,70%
same,"Post-emergence effect, Effect %, LOLRI",320 g/ha,90%
same,"Post-emergence effect, Effect %, SETVI",80 g/ha,90%
same,"Post-emergence effect, Effect %, SETVI",320 g/ha,90%
same,herbicidal efficacy by comparison to the structurally similar compounds (Tables 41a and 41b),"different harmful plants, 320 g or less per hectare, vs compounds from WO2020/245044",distinctly improved herbicidal efficacy
